Legend:
M1 muscarinic receptor = target: T1, M1 muscarinic receptor (Homo sapiens, UniProt P11229); test: Functional mobilization of intracellular calcium (FLIPR) in M1-CHO cells; type: cell-based; details: M1 receptor, calcium mobilization; for Emax: read-out: M1 Efficacy
T1 construct: expressed in transfected cells; host or cells: CHO (M1-CHO)
T1 sequence (P11229 1-460): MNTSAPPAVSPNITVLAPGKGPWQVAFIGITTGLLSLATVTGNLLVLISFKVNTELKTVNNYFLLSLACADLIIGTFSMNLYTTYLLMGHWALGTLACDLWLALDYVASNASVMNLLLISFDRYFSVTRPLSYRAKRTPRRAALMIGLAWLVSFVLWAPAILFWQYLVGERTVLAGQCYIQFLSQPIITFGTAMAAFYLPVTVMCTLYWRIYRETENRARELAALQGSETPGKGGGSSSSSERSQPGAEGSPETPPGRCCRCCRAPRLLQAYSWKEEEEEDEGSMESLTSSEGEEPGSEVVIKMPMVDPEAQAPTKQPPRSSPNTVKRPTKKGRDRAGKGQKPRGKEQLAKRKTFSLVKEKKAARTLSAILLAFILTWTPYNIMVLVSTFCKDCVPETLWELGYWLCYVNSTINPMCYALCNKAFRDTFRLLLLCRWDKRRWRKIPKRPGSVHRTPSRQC
Method in brief: (§1)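 FLIPR Ca2+ read, ex 488/em 540 nm, 60 s. Recombinant CHO lines (M1 or M4), dye-loaded Fluo-3 AM 60-90 min at 37° C, probenecid 1 mM, pH 7.4. Agonist: compound alone; inhibition: 15 min compound pre-incubation, then carbachol at EC80 for that subtype.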

M4 muscarinic receptor = target: T2, M4 muscarinic receptor (Homo sapiens, UniProt P08173); test: Functional mobilization of intracellular calcium (FLIPR) in M4-CHO cells; type: cell-based; details: M4 receptor, calcium mobilization; for Emax: read-out: M4 Efficacy
T2 construct: expressed in transfected cells; host or cells: CHO (M4-CHO)
T2 sequence (P08173 1-479): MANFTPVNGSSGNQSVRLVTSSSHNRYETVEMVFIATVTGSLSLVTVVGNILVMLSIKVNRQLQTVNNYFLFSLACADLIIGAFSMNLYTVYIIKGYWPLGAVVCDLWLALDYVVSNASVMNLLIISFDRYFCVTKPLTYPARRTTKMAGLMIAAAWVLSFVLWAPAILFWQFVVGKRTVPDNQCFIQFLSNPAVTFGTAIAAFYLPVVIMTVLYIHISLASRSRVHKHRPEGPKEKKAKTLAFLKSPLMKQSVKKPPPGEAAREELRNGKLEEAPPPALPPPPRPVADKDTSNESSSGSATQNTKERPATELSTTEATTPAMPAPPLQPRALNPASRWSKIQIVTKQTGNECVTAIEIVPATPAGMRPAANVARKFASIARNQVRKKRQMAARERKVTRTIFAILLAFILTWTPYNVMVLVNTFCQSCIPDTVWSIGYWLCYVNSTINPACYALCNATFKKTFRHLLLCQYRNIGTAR
Method in brief: as §1

Compound	M1 Activity (M1 muscarinic receptor)	Emax (M1 muscarinic receptor)	M4 Activity (M4 muscarinic receptor)	Emax (M4 muscarinic receptor)	M1 Efficacy (M1 muscarinic receptor)	M4 Efficacy (M4 muscarinic receptor)
Fc1ccc2c(c1)C1(CCN(C[C@H]3C[C@H]4CC[C@H]3C4)CC1)CO2 [compound 207]	xx (activity was measured to be between 0.1 μM and 1.0 μM)	65 to 85%	x (activity was measured to be greater than 1.0 μM)	< 65%	–	–
Cc1ccc2c(c1)C1(CCN(C3CC4CCC3C4)CC1)CN2C(=O)c1cc(C)on1 (stereo not drawn) [compound 208]	xx (activity was measured to be between 0.1 μM and 1.0 μM)	< 65%	x (activity was measured to be greater than 1.0 μM)	< 65%	–	–
CN(C)C(=O)N1CC2(CCN(C3CCN(C(=O)O[C@@H]4CCOC4)CC3)CC2)c2cc(F)ccc21 [compound 209]	xx (activity was measured to be between 0.1 μM and 1.0 μM)	> 85%	x (activity was measured to be greater than 1.0 μM)	< 65%	–	–
CC(=O)N1CC2(CCN(C3CCCCCC3)CC2)c2cc(F)ccc21 [compound 210]	xx (activity was measured to be between 0.1 μM and 1.0 μM)	65 to 85%	x (activity was measured to be greater than 1.0 μM)	< 65%	–	–
Cc1ccc2c(c1)C1(CCN(C3CC4CCC3C4)CC1)CN2C(=O)c1cc(C)n(C)n1 (stereo not drawn) [compound 211]	x (activity was measured to be greater than 1.0 μM)	65 to 85%	x (activity was measured to be greater than 1.0 μM)	< 65%	–	–
O=C(O[C@H]1CCOC1)N1C2CCC1CC(N1CCC3(CC1)COc1ccc(F)cc13)C2 (stereo partly drawn) [compound 212]	x (activity was measured to be greater than 1.0 μM)	< 65%	x (activity was measured to be greater than 1.0 μM)	< 65%	–	–
CC(=O)NC1CC2(CCN(C[C@H]3C[C@H]4C=C[C@H]3C4)CC2)c2ccccc21 (stereo partly drawn) [compound 213]	xx (activity was measured to be between 0.1 μM and 1.0 μM)	65 to 85%	x (activity was measured to be greater than 1.0 μM)	< 65%	–	–
CCOC(=O)N1C2CCC1CC(N1CCC3(CC1)CN(C(=O)C1CC1)c1ccc(F)cc13)C2 (stereo not drawn) [compound 214]	x (activity was measured to be greater than 1.0 μM)	< 65%	x (activity was measured to be greater than 1.0 μM)	< 65%	–	–
COCCOC(=O)N1C2CCC1CC(N1CCC3(CC1)CN(C(=O)O[C@@H]1CCOC1)c1ccc(F)cc13)C2 (stereo partly drawn) [compound 216]	xxx (activity was measured to be less than 0.1 μM)	–	x (activity was measured to be greater than 1.0 μM)	–	xxx (efficacy was calculated to be greater than 85%)	x (efficacy was calculated to be less than 65%)
O=C(OC1CCC1)N1C2CCC1CC(N1CCC3(CC1)C(=O)Nc1ccccc13)C2 (stereo not drawn) [compound 217]	xx (activity was measured to be between 0.1 μM and 1.0 μM)	< 65%	x (activity was measured to be greater than 1.0 μM)	< 65%	–	–
CCNC(=O)N1C2CCC1CC(N1CCC3(CC1)COc1ccc(F)cc13)C2 (stereo not drawn) [compound 219]	x (activity was measured to be greater than 1.0 μM)	65 to 85%	x (activity was measured to be greater than 1.0 μM)	< 65%	–	–
CCCCOC(=O)N1CC2(CCN(C3CCN(C(=O)OCC)CC3)CC2)c2cc(F)ccc21 [compound 220]	x (activity was measured to be greater than 1.0 μM)	65 to 85%	x (activity was measured to be greater than 1.0 μM)	< 65%	–	–
CCOC(=O)N1CCC(N2CCC3(CC2)CN(C(C)=O)c2ccc(-c4ccc(C(C)=O)cc4)cc23)CC1 [compound 221]	xx (activity was measured to be between 0.1 μM and 1.0 μM)	65 to 85%	x (activity was measured to be greater than 1.0 μM)	< 65%	–	–
CCOC(=O)N1C2CCC1CC(N1CCC3(CC1)CN(C(=O)c1ccc(F)cc1)c1ccc(F)cc13)C2 (stereo not drawn) [compound 222]	x (activity was measured to be greater than 1.0 μM)	< 65%	x (activity was measured to be greater than 1.0 μM)	< 65%	–	–
CCOC(=O)N1CCC(N2CCC3(CC2)CN(C(=O)N(CC)CC)c2ccc(F)cc23)CC1 [compound 223]	x (activity was measured to be greater than 1.0 μM)	< 65%	x (activity was measured to be greater than 1.0 μM)	< 65%	–	–
Clc1ccc2c(c1)C1(CCN(C3CC4CCC3C4)CC1)CN2 (stereo not drawn) [compound 224]	x (activity was measured to be greater than 1.0 μM)	65 to 85%	x (activity was measured to be greater than 1.0 μM)	< 65%	–	–
CCOC(=O)N1CCC(N2CCC3(CC2)CN(C(C)=O)c2ccc(OC(F)(F)F)cc23)CC1 [compound 225]	x (activity was measured to be greater than 1.0 μM)	< 65%	x (activity was measured to be greater than 1.0 μM)	< 65%	–	–
CC(=O)N1CC2(CCN(C3CCC(C(C)C)CC3)CC2)c2cc(F)ccc21 (stereo not drawn) [compound 226]	x (activity was measured to be greater than 1.0 μM)	< 65%	x (activity was measured to be greater than 1.0 μM)	< 65%	–	–
CS(=O)(=O)N[C@@H]1CC2(CCN(C[C@H]3C[C@H]4CC[C@H]3C4)CC2)c2ccccc21 [compound 227]	xxx (activity was measured to be less than 0.1 μM)	> 85%	xxx (activity was measured to be less than 0.1 μM)	> 85%	–	–
CCOC(=O)C1CCC(N2CCC3(CC2)CN(C(C)=O)c2ccc(F)cc23)CC1 (stereo not drawn) [compound 228]	x (activity was measured to be greater than 1.0 μM)	< 65%	x (activity was measured to be greater than 1.0 μM)	< 65%	–	–
CCOC(=O)N1CCC(N2CCC3(CC2)CN(CCC(=O)CC)c2ccc(F)cc23)CC1 [compound 229]	xx (activity was measured to be between 0.1 μM and 1.0 μM)	< 65%	xxx (activity was measured to be less than 0.1 μM)	> 85%	–	–
C#CCCOC(=O)N1C2CCC1CC(N1CCC3(CC1)CN(C(=O)N(C)C)c1ccc(F)cc13)C2 (stereo not drawn) [compound 230]	x (activity was measured to be greater than 1.0 μM)	< 65%	xx (activity was measured to be between 0.1 μM and 1.0 μM)	> 85%	–	–
CCCNC(=O)N1C2CCC1CC(N1CCC3(CC1)COc1ccc(F)cc13)C2 (stereo not drawn) [compound 231]	x (activity was measured to be greater than 1.0 μM)	65 to 85%	x (activity was measured to be greater than 1.0 μM)	> 85%	–	–
Cc1ccc2c(c1)C1(CCN(C3CC4CCC3C4)CC1)CN2S(C)(=O)=O (stereo not drawn) [compound 232]	xx (activity was measured to be between 0.1 μM and 1.0 μM)	< 65%	xxx (activity was measured to be less than 0.1 μM)	> 85%	–	–
Cc1cc(C(=O)N2CC3(CCN(C4CC5CCC(C4)N5C(=O)O[C@@H]4CCOC4)CC3)c3cc(F)ccc32)nn1C (stereo partly drawn) [compound 233]	xxx (activity was measured to be less than 0.1 μM)	65 to 85%	xxx (activity was measured to be less than 0.1 μM)	> 85%	–	–
CCOC(=O)N1CCC(N2CCC3(CC2)CN(C(C)=O)c2ccc(-c4cccnc4)cc23)CC1 [compound 234]	xxx (activity was measured to be less than 0.1 μM)	65 to 85%	xxx (activity was measured to be less than 0.1 μM)	65 to 85%	–	–
COC(=O)N1CC2(CCN(C3CC4CCC(C3)N4C(=O)OC)CC2)c2cc(F)ccc21 (stereo not drawn) [compound 235]	xx (activity was measured to be between 0.1 μM and 1.0 μM)	65 to 85%	x (activity was measured to be greater than 1.0 μM)	65 to 85%	–	–

Reference: patent US7786141B2 (Vertex Pharmaceuticals Incorporated, priority 2004, dated 2010)
